Test results reported in patent US20150218516A1, “COMPOSITIONS AND METHODS FOR ENHANCING IMMUNE RESPONSES MEDIATED BY ANTIGEN-PRESENTING CELLS” (The Board of Regents of the University of Nebraska, priority 2007, published 2015).
“Also recorded” adds a separate entry of the source. Non-standard residues stand in square brackets, D forms with d. Residues, ends and D or L forms follow the SMILES beside them.

Assays:
[1] = tested on: SKmel-28; assay: In vitro cytotoxicity of T lymphocytes cultured with peptide-pulsed dendritic cells against SKmel-28; type: cell-based, human; conditions: UCB or PBMC derived T lymphocytes cultured with dendritic cells exposed to the peptide
Description: (§1) The tumor peptide antigen tyrosinase is expressed on more than 70% of human melanoma cells that are human leukocyte antigen (HLA) A2 positive. […] The dendritic cells, presumably expressing the tyrosinase epitope, were then cultured with a lymphocyte-enriched cell population which was then cultured with melanoma cells to determine melanoma cell killing using a cytotoxic T lymphocyte assay.

[2] = tested on: A-375 cell line (melanoma); type: cell-based, human
Description: as §1

[3] = tested on: LNCaP cells
Description: (§2) An exemplary in vitro cytotoxicity assay comprises the following steps. Antigen presenting cells, such as dendritic cells, were obtained from bone marrow or blood. Dendritic cells were preferentially differentiated in culture through the addition of IL-4, GM-CSF, and TNFα for 7-10 days. Dendritic cells were then pulsed with peptides for 18 hours. MNCs were also isolated from spleens or blood (e.g., cord or peripheral) and cultured in IL-2 and GM-CSF for 7-10 days for enhanced lymphocyte proliferation. The pulsed dendritic cells were then co-cultured with the lymphocyte-enriched MNCs at a 1:10 ratio for 4 days. Lymphocyte-enriched MNC effector cells were then co-cultured with tumor target cells labeled with the bioactive fluorescent dye Calcein AM for 4 hours. Lysed cells were detected by photometrically measuring the released fluorescent dye.
(§3) Certain prostate carcinomas express prostate-specific membrane antigen (PSMA). […] The fusion peptides were administered to APCs which were subsequently presented to a lymphocyte-enriched population from cord blood as described hereinabove in Example 6. After antigen presentation by pulsed DC in co-culture, CTLs were tested for their ability to lyse three different target cell monolayers in an in vitro cytotoxicity assay. […] The fusion peptides were also administered to APCs which were subsequently presented to a adult peripheral blood-derived CTLs. In vitro cytotoxicity against the human prostate cancer cell line LNCaP was then assessed using the bioactive fluorescent dye calcein AM (FIG. 11D).

[4] = tested on: P815S (HBsAg transfectant) target cells; assay: HBsAg-specific CTL response of immunized mice, 51Cr-release cytotoxicity assay; type: in vivo, BALB/c mice; conditions: for % Specific Lysis: s.c. in PBS
Description: (§4) Groups of six to eight BALB/c mice were given bilateral s.c. injections in the inguinal area with (100 al each side) of a PBS solution containing 50-100 μg of the peptides. Booster injections were given s.c. in the inguinal region at 21-day intervals. Sera for Ab analysis were obtained by retro-orbital bleeds of mice under CO2 narcosis.
Three weeks after secondary) (2° immunization and two weeks after tertiary)(3° immunization, two to three mice from each experimental group were sacrificed by cervical dislocation and their spleens removed aseptically. Pooled splenic single-cell suspensions were prepared in RPMI-1640 medium (Sigma, St. Louis, Mo.) containing 10% FBS (Hyclone, Salt Lake City, Utah) and the following supplements: 10 mM HEPES buffer, 50 μM 2-ME, 2 mM L-glutamine, 50 μg/ml gentamicin sulfate, 100 Um′ penicillin, and 50 μg/ml streptomycin (all supplements from Sigma). This supplemented complete medium is designated RP10-SC. For culture, 75×10^6 pooled spleen cells in 5 ml of RP10-SC were pipetted into a 25 cm^2 T-flask (Corning). Next, 5 ml of RP 10-SC containing 150 nM of synthetic, L^d MHC class I-restricted peptide, […] (SEQ ID NO:12) were added to the flask. The flasks were incubated undisturbed in an upright position at 37° C. in 5% CO2. After 4 days of incubation, the cells were recovered from the T-flasks, washed once by centrifugation in fresh RP10-SC, resuspended in 5 ml RP10-SC, counted, and adjusted to 5×10^6 viable cells/ml.
The specific cell target used for measuring CTL activity was P815S, a transfectant cell line of P815 (H-2^d) expressing the HBsAg (14). P815S was grown in RP10-SC medium containing 400 μg/ml geneticin disulfate (G418, Sigma). The parental H-2^d mastocytoma cell line, P815 (ATTC #TIB64) grown in RP10-SC medium, was used as a non-specific target for CTL assays to measure % non-specific lysis.
The target cells, either P815S or P815, were washed 2 times in RP10-SC. For labeling, 5×10^6 target cells were mixed with 250 μCi ^51Cr-sodium chromate[400-1200 Ci (14.8-44.4 TBq)]/[…]; NEN Dupont, Boston, Mass.) in a 1.0 ml volume in a 50 ml conical tube and incubated in a 37° C. water bath for 90 mins. After incubation, the labeled cells were washed 3 times by centrifugation using 15 ml volumes of fresh RP10-SC and allowed to stand at room temperature for 30 mins. The pelleted cells were resuspended in RP10-SC at 1×10^6 cells/ml.
The recovered splenic effector cells at 5×10^6 cells/ml were serially diluted in triplicate in wells of round-bottom 96 well plates (Corning, 25850) in a total volume of 100 al/well and using RP10-SC as the diluent. Next, 100 μl volumes of ^51Cr-labeled targets, P815S or P815, at 1×10^6 cells/ml were added to the wells. Maximum release (MR) wells contained 100 al of target cells and 100 al of 2% (v/v) Tween 20 while spontaneous release (SR) wells contained labeled cells in medium alone. Effector-to-target ratios of 50:1, 25:1, 12.5:1, and 6.25:1 were routinely employed. The plates were centrifuged at 400×g and incubated at 37° C. in 5% CO2 for 4 hrs. After incubation, the supernatant fractions in the wells were collected using a Skatron Supernatant Collection System (Skatron Instruments, Sterlin, Va.). The amount of ^51Cr radioactivity in the supernatant fractions was measured using a Wallac 1470 Wizard gamma counter (Turku, Finland).

[5] = tested on: human umbilical artery; assay: Smooth muscle contraction of human umbilical artery; type: cell-based
Description: (§5) Statistical analysis of the values obtained from pharmacologic assays was performed using one-way analysis of variance (ANOVA).

[6] = tested on: immunizing peptide and free peptides; assay: ELISA of sera from mice immunized with HBsAg CTL epitope-C5a agonist constructs; type: in vivo; conditions: sera after three injections
Description: as §4
Thus, it was of interest to determine whether sera from mice immunized with the control peptides and epitope-C5a agonist constructs contained Ab directed against any of the peptides. […] (SEQ ID NO:12), […]

[7] = tested on: human PMNs; assay: MPO release from human PMNs; type: cell-based
Description: as §5

[8] = tested on: BEAS-2B epithelial cells
Description: as §2, §3

[9] = tested on: Caki-1 cells; assay: In vitro cytotoxicity of T lymphocytes cultured with peptide-pulsed dendritic cells against Caki-1; type: cell-based, human; conditions: cord blood-derived T lymphocytes cultured with dendritic cells exposed to the peptide

## YMNGTMSQV [tyrosinase antigen]
[1]
  cytotoxicity against SKmel-28 (in words): minimal cytotoxicity
[2]
  cytotoxicity against A-375 (in words): minimal cytotoxicity
[3]
  cytotoxicity against LNCaP (in words): did not exhibit significant cytotoxicity

## CC[C@H](C)[C@H](N)C(=O)N1CCC[C@H]1C(=O)N[C@@H](CCC(N)=O)C(=O)N[C@@H](CO)C(=O)N[C@@H](CC(C)C)C(=O)N[C@@H](CC(=O)O)C(=O)N[C@@H](CO)C(=O)N[C@@H](Cc1c[nH]c2ccccc12)C(=O)N[C@@H](Cc1c[nH]c2ccccc12)C(=O)N[C@H](C(=O)N[C@@H](CO)C(=O)N[C@@H](CC(C)C)C(=O)N[C@@H](CCCNC(=N)N)C(=O)N[C@@H](CCCNC(=N)N)C(=O)N[C@@H](Cc1ccc(O)cc1)C(=O)N[C@@H](CO)C(=O)N[C@@H](Cc1ccccc1)C(=O)N[C@@H](CCCCN)C(=O)N1CCC[C@H]1C(=O)N[C@@H](CCSC)C(=O)N1CCC[C@H]1C(=O)N[C@@H](CC(C)C)C(=O)N[C@H](C)C(=O)N[C@@H](CCCNC(=N)N)C(=O)O)[C@@H](C)O (H-IPQSLDSWWTSLRRYSFKPMPL[dA]R-OH)
[4]; Effector:Target 6.25:1, boost day 21, spleen cells day 42
  % Specific Lysis: 9%
[4]; Effector:Target 12.5:1, boost day 21, spleen cells day 42
  % Specific Lysis: 14%
[4]; Effector:Target 25:1, boost day 21, spleen cells day 42
  % Specific Lysis: 23%
[4]; Effector:Target 50:1, boost day 21, spleen cells day 42, restimulated 4 days with S28-39
  % Specific Lysis: 32%
[4]; two or three s.c. injections at 21 day intervals, no added adjuvant
  Ag-specific CTL response (in words): significant CTL response; also recorded: generated an Ag-specific CTL response; also recorded: robust CTL activity
[5]; concentration resulting in 50% maximum contraction
  EC50: 161 nM
[5]; umbilical artery contraction and MPO release assays
  agonist behaviour relative to natural C5a (in words): full agonists
[5]; −log EC50 (M), mean ± SE, n=3
  pD2 ± SE: 6.79 ± 0.31
[6]
  serum binding to free peptides […] or YSFKPMPLaR: did not bind
[7]; 50% maximum release of myeloperoxidase
  EC50: 540 nM
[7]; −log EC50 (M), mean ± SE, n=3
  pD2 ± SE: 6.27 ± 0.29

## CC(C)C[C@H](NC(=O)[C@@H](N)CC(C)C)C(=O)N[C@@H](Cc1c[nH]cn1)C(=O)N[C@@H](CCC(=O)O)C(=O)N[C@H](C(=O)N[C@@H](CC(=O)O)C(=O)N[C@@H](CO)C(=O)N[C@@H](C)C(=O)N[C@H](C(=O)O)C(C)C)[C@@H](C)O [PSMA p1]
[2]
  cytotoxicity against A-375 (in words): not cytotoxic
[3]
  cytotoxicity against LNCaP (in words): did not exhibit significant cytotoxicity
[8]
  cytotoxicity against BEAS-2B (in words): not cytotoxic

## CC[C@H](C)[C@H](NC(=O)[C@H](CC(=O)O)NC(=O)[C@H](Cc1ccccc1)NC(=O)[C@H](CC(C)C)NC(=O)[C@H](C)N)C(=O)N[C@@H](CCC(=O)O)C(=O)N[C@@H](CO)C(=O)N[C@@H](CCCCN)C(=O)N[C@H](C(=O)O)C(C)C [PSMA p2]
[2]
  cytotoxicity against A-375 (in words): not cytotoxic
[3]
  cytotoxicity against LNCaP (in words): did not exhibit significant cytotoxicity
[8]
  cytotoxicity against BEAS-2B (in words): not cytotoxic

## CSCC[C@H](NC(=O)[C@H](CC(=O)O)NC(=O)[C@H](CCCCN)NC(=O)[C@H](Cc1ccccc1)NC(=O)[C@H](CO)NC(=O)[C@@H](N)Cc1ccc(O)cc1)C(=O)N1CCC[C@H]1C(=O)N(C)[C@@H](CC(C)C)C(=O)N[C@H](C)C(=O)N[C@@H](CCCNC(=N)N)C(=O)O [YSFKDMP(MeL)aR]
[9]
  cytotoxicity against tyrosinase-negative Caki-1 (in words): incapable of killing
